The values below come from patent publication US20080255127A1, “Pesticide Formulations with a Crystallization Risk, and a Method for Their Preparation” (priority 2005, published 2008).

The nature of data set [1]: Crystallization test of EW formulations Dn (25-μm metal filter). In kind it is physicochemical. Also noted: key to Crystallization: −: A minus sign indicates the absence of crystals; +: a plus sign indicates their presence. As to conditions: 5.0% pesticide in formulation Dn; for Crystallization: 2% of the formulation in 98 ml of water, 1° C. for 24 h, 25-μm metal filter. The protocol: In the crystallization test, an emulsion consisting of 2% of the formulation in 98 ml of water was kept at 1° C. for 24 h and was then passed through a 25-μm metal filter. A minus sign indicates the absence of crystals, while a plus sign indicates their presence. […] The worst emulsion, which however was still acceptable, scored +, a good emulsion scored ++ and the best ones scored +++. Both the phase separation and the time of its occurrence were observed when evaluating the emulsion. […] A single + sign means that some oil did separate out after 2 hours.

Data set [2] in a line: Risk of crystallization of pesticides in ECs and EWs. In kind it is physicochemical. As to conditions: conventional recipes; EW with less than 10% of water. An excerpt:
This is what happened in the case of both EP655197 and EP453899, where the compositions for which the disclosed anticrystallization agents (N,N-dialkylamides) cover the whole range of triazoles with a fungicidal action, without giving examples of all of the compositions in which it is appropriate to use N,N-dimethylalkylamides. […] Propioconazole is an example.
The inventors have established that it is not the similarly of the chemical structure that puts the pesticide “at risk” of crystallization in ECs and EWs, but instead it is much more sensible to evaluate certain experimental parameters (or parameters that are calculated semi-empirically) in order to predict the risk of crystallization. In numerous tests, the inventors have found some pesticides with a risk of crystallization and others without. This risk refers in concrete terms to what happens when 5 ml of the EC or EW is diluted with 95 ml of water and kept in a refrigerator (at 1° C.), after which the emulsion is passed through a 5-μm filter 7 days later.

For the molecule `O=C(O)COc1ccc(Cl)cc1Cl` [2,4-D], in data set [1], the Crystallization entry was “−”.
With `Cc1cc(Cl)ccc1OCC(=O)O` [MCPA], the Crystallization entry in data set [1] was “−”.
Take `CCNc1nc(Cl)nc(NC(C)C)n1` [atrazine]: the Crystallization entry in data set [1] was “−”.
Take `COP(=S)(OC)SCn1nnc2ccccc2c1=O` [azinphos-methyl]: the Crystallization result in data set [1] is listed as “−”.
Still for that read-out and setting: the entry for `O=c1oc2ccccc2c(O)c1C(CC(O)c1ccc(-c2ccc(Br)cc2)cc1)c1ccccc1` (centres unmarked) [bromadiolone] is “−”; for `Clc1ccc(C2(Cn3cncn3)CC(Br)CO2)c(Cl)c1` (centres unmarked) [bromuconazole] it is “−”.
The same measure, in the same setting: the entry for `C=CCOC(=O)C(C)(C)OC(=O)c1cc(-n2c(=O)cc(C(F)(F)F)n(C)c2=O)ccc1Cl` [butafenacil] is “−”; for `Cc1ccc(NC(=O)N(C)C)cc1Cl` [chlorotoluron] it is “−”; for `O=c1oc2ccccc2c(O)c1C1CCCc2ccccc21` (centres unmarked) [coumatetralyl] it is “+”.
With `O=C(O)C1(C(=O)Nc2ccc(Cl)cc2Cl)CC1` [cyclanilide], in data set [1], the Crystallization entry is “−”.
On the same count and under the same terms, the entry for `CC(C1CC1)C(O)(Cn1cncn1)c1ccc(Cl)cc1` (centres unmarked) [cyproconazole] is “−”; for `CC1COC(Cn2cncn2)(c2ccc(Oc3ccc(Cl)cc3)cc2Cl)O1` (centres unmarked) [difenconazole] it is “−”; for `COc1ccc(C(=CC(=O)N2CCOCC2)c2ccc(Cl)cc2)cc1OC` [dimethomorph] it is “−”.
Turning to `CN(C)C(=O)Nc1ccc(Cl)c(Cl)c1` [diuron], in data set [1], the Crystallization result is “−”.
`CCOc1ccccc1OS(=O)(=O)NC(=O)Nc1nc(OC)cc(OC)n1` [ethoxysulfuron]: in data set [1], the Crystallization result was “−”.
As for `CC1(C(=O)Nc2ccc(O)c(Cl)c2Cl)CCCCC1` [fenhexamid], in data set [1], the Crystallization result is given as “−”.
For the molecule `C/C(=N/Nc1nc(C)cc(C)n1)c1ccccc1C` [ferimzone], in data set [1], the Crystallization result is on record as “−”.
As for `C[Si](Cn1cncn1)(c1ccc(F)cc1)c1ccc(F)cc1` [flusilazole], the Crystallization entry in data set [1] is given as “−”.
Take `CS(=O)(=O)NC(=O)c1cc(Oc2ccc(C(F)(F)F)cc2Cl)ccc1[N+](=O)[O-]` [fomesafen]: the Crystallization result in data set [1] was “−”.
Take `c1coc(-c2nc3ccccc3[nH]2)c1` [fuberidazole]: the Crystallization entry in data set [1] is reported as “−”.
In the case of `COC(=O)C(C)N(C(=O)c1ccco1)c1c(C)cccc1C` (centres unmarked) [furalaxyl], in data set [1], the Crystallization entry is listed as “−”.
As for `CC(C)(C)N(NC(=O)c1ccc(Cl)cc1)C(=O)c1ccccc1` [halofenozide], the Crystallization entry in data set [1] was “−”.
Regarding `C=CCOC(Cn1ccnc1)c1ccc(Cl)cc1Cl` (centres unmarked) [imazalil], in data set [1], the Crystallization entry is listed as “−”.
With `CCC1(CC2(c3cccc(Cl)c3)CO2)C(=O)c2ccccc2C1=O` (centres unmarked) [indanofan], in data set [1], the Crystallization entry is “−”.
On to `Cc1ccc(C(C)NC(=O)[C@@H](NC(=O)OC(C)C)C(C)C)cc1` (some centres unmarked) [iprovalicarb], for which the Crystallization entry in data set [1] was “−”.
For `CC(C)c1ccc(NC(=O)N(C)C)cc1` [isoproturon], the Crystallization entry in data set [1] was “−”.
As for `CON(C)C(=O)Nc1ccc(Cl)c(Cl)c1` [linuron], the Crystallization result in data set [1] was “−”.
Same read-out and setting: then `CCOC(=O)C1=NN(c2ccc(Cl)cc2Cl)C(C)(C(=O)OCC)C1` (centres unmarked) [mefenpyr-diethyl], with “−”; and `CC1(C)CCC(Cc2ccc(Cl)cc2)C1(O)Cn1cncn1` (centres unmarked) [metconazole], with “−”; and `CNC(=O)Oc1cc(C)c(SC)c(C)c1` [methiocarb], with “−”.
`OC(c1ccc(F)cc1)(c1cncnc1)c1ccccc1Cl` (centres unmarked) [nuarimol]: the Crystallization result in data set [1] was “−”.
For `CC(C)(C)C(O)C(Cc1ccc(Cl)cc1)n1cncn1` (centres unmarked) [paclobutrazole], the Crystallization entry in data set [1] is “−”.
As for `CCC(=O)Nc1ccc(Cl)c(Cl)c1` [propanil], in data set [1], the Crystallization result is on record as “−”.
For `OC(Cc1ccccc1Cl)(Cn1nc[nH]c1=S)C1(Cl)CC1` (centres unmarked) [prothioconazole], the Crystallization entry in data set [1] is “−”.
Still for that read-out and setting: the entry for `CCOP(=S)(OCC)Oc1ccc(=O)n(-c2ccccc2)n1` [pyridaphenthion] is “−”.
Turning to `CC1CCCCC1NC(=O)Nc1ccccc1` (centres unmarked) [siduron], in data set [1], the “Crystallization problems (in words)” value is “had crystallization problems” and the Crystallization result is “+”.
In the case of `CCNc1nc(NCC)nc(SC)n1` [simetryn], the Crystallization entry in data set [1] is “−”.
As for `CC(C)(C)C(O)(CCc1ccc(Cl)cc1)Cn1cncn1` (centres unmarked) [tebuconazole], in data set [1], the Crystallization entry is listed as “−”.
Take `CC(C)(C)C(=O)C(Oc1ccc(Cl)cc1)n1cncn1` (centres unmarked) [triadimefon]: in data set [1], the Crystallization result is given as “−”.
With `CC(C)(C)C(O)C(Oc1ccc(Cl)cc1)n1cncn1` (centres unmarked) [triadimenol], in data set [1], the Crystallization result is listed as “−”.
Regarding `CCOC(=O)CSc1nc(C(C)(C)C)nn1C(=O)N(C)C` [triazamate], in data set [1], the “Crystallization problems (in words)” value was “had crystallization problems” and the Crystallization result is reported as “+”.
As for Propioconazole, the “Crystallization problems in an emulsifiable concentrate (EC) or emulsion in water (EW)” value in data set [2] was “free of crystallization problems”.
